Laboratory results from PubChem BioAssay (NCI).
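These data come from cells grown in 96-well plates and exposed to compound for 48 hours at five concentrations. At the GI50, growth is halved. TGI: concentration producing complete growth inhibition.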

Assays:
Experiment in all cases: growth of human tumour cells (NCI), 48 h
MDA-MB-468 breast = tested on: MDA-MB-468 breast
HOP-92 NSCLC = tested on: HOP-92 NSCLC
RXF 393 renal = tested on: RXF 393 renal
K-562 leukemia = tested on: K-562 leukemia
HT29 colon = tested on: HT29 colon
SW-620 colon = tested on: SW-620 colon
HS 578T breast = tested on: HS 578T breast
SF-295 CNS = tested on: SF-295 CNS
EKVX NSCLC = tested on: EKVX NSCLC
HOP-62 NSCLC = tested on: HOP-62 NSCLC
RPMI-8226 leukemia = tested on: RPMI-8226 leukemia
MALME-3M melanoma = tested on: MALME-3M melanoma
UO-31 renal = tested on: UO-31 renal
KM12 colon = tested on: KM12 colon
IGROV1 ovarian = tested on: IGROV1 ovarian
MDA-MB-435 = tested on: MDA-MB-435
HL-60(TB) leukemia = tested on: HL-60(TB) leukemia
SF-268 CNS = tested on: SF-268 CNS
NCI-H460 lung = tested on: NCI-H460 lung
HCT-15 colon = tested on: HCT-15 colon
SK-MEL-5 melanoma = tested on: SK-MEL-5 melanoma
U251 CNS = tested on: U251 CNS
MOLT-4 leukemia = tested on: MOLT-4 leukemia
HCT-116 colon = tested on: HCT-116 colon
COLO 205 colon = tested on: COLO 205 colon
MCF7 breast = tested on: MCF7 breast
T-47D breast = tested on: T-47D breast
OVCAR-5 ovarian = tested on: OVCAR-5 ovarian
OVCAR-3 ovarian = tested on: OVCAR-3 ovarian
A498 renal = tested on: A498 renal

SMILES: CC(=O)Nc1ccc(-c2cn(-c3cccc(C(=O)Nc4ccc(F)c(C(F)(F)F)c4)c3)nn2)cn1
- GI50 (MDA-MB-468 breast): 14.8 µM
- TGI (MDA-MB-468 breast): 29 µM
- GI50 (HOP-92 NSCLC): 15.8 µM
- TGI (HOP-92 NSCLC): 35.1 µM
- GI50 (RXF 393 renal): 14.5 µM
- TGI (RXF 393 renal): 31.6 µM
- GI50 (K-562 leukemia): 4.13 µM
- TGI (K-562 leukemia): 24.6 µM
- GI50 (HT29 colon): 16.3 µM
- TGI (HT29 colon): 33.6 µM
- GI50 (SW-620 colon): 17.1 µM
- TGI (SW-620 colon): 33.8 µM
- GI50 (HS 578T breast): 17.4 µM
- TGI (HS 578T breast): 66.7 µM
- GI50 (SF-295 CNS): 14.6 µM
- TGI (SF-295 CNS): 28.2 µM
- GI50 (EKVX NSCLC): 18.1 µM
- TGI (EKVX NSCLC): 34 µM
- GI50 (HOP-62 NSCLC): 21.2 µM
- TGI (HOP-62 NSCLC): 44.6 µM
- GI50 (RPMI-8226 leukemia): 24.3 µM
- TGI (RPMI-8226 leukemia): 66.2 µM
- GI50 (MALME-3M melanoma): 9.6 µM
- TGI (MALME-3M melanoma): 21.8 µM
- GI50 (UO-31 renal): 15.4 µM
- TGI (UO-31 renal): 29.6 µM
- GI50 (KM12 colon): 6.64 µM
- TGI (KM12 colon): 53.5 µM
- GI50 (IGROV1 ovarian): 16.5 µM
- TGI (IGROV1 ovarian): 30.9 µM
- GI50 (MDA-MB-435): 16.8 µM
- TGI (MDA-MB-435): 32.9 µM
- GI50 (HL-60(TB) leukemia): 6.57 µM
- TGI (HL-60(TB) leukemia): > 100 µM
- GI50 (SF-268 CNS): 26.5 µM
- TGI (SF-268 CNS): 63.4 µM
- GI50 (NCI-H460 lung): 16.8 µM
- TGI (NCI-H460 lung): 32.2 µM
- GI50 (HCT-15 colon): 17.2 µM
- TGI (HCT-15 colon): 33.4 µM
- GI50 (SK-MEL-5 melanoma): 17.2 µM
- TGI (SK-MEL-5 melanoma): 34 µM
- GI50 (U251 CNS): 23.5 µM
- TGI (U251 CNS): 57.7 µM
- GI50 (MOLT-4 leukemia): 20.2 µM
- TGI (MOLT-4 leukemia): 61.1 µM
- GI50 (HCT-116 colon): 1470 nM
- TGI (HCT-116 colon): 18.2 µM
- GI50 (COLO 205 colon): 18.3 µM
- TGI (COLO 205 colon): 41.3 µM
- GI50 (MCF7 breast): 16 µM
- TGI (MCF7 breast): 34.3 µM
- GI50 (T-47D breast): 22.9 µM
- TGI (T-47D breast): 66.4 µM
- GI50 (OVCAR-5 ovarian): 17.7 µM
- TGI (OVCAR-5 ovarian): 35 µM
- GI50 (OVCAR-3 ovarian): 21.2 µM
- TGI (OVCAR-3 ovarian): 41.4 µM
- GI50 (A498 renal): 26.6 µM
